Source: patent publication US12061201B2, “Fluorescent probes for the visualization of FtsZ in gram-positive and gram-negative bacterial pathogens” (Rutgers, The State University of New Jersey, priority 2019, dated 2024)
Like-named read-outs stand apart in the source and are kept apart here.

Columns and labels:
Test in all cases: Fluorescence anisotropy binding of BOFP to FtsZ
[1] = target: T1, Acinetobacter baumannii FtsZ (AbFtsZ) (Acinetobacter baumannii, UniProt V5V8B6); details: for Kd: 50 mM Tris-HCl (pH 7.6), 50 mM KCl
T1 sequence (V5V8B6 1-391): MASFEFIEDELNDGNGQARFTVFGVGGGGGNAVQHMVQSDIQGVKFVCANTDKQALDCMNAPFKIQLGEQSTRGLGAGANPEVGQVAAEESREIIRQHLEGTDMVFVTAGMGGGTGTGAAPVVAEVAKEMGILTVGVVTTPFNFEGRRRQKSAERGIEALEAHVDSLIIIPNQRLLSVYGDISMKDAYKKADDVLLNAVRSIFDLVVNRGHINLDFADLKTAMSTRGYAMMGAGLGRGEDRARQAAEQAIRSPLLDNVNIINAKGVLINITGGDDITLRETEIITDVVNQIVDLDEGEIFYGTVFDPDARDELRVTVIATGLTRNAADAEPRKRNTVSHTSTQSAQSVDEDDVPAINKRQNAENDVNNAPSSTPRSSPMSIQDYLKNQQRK
Method: (§1) Fluorescence anisotropy assay for determining the affinities and thermodynamics associated with the binding of BOFP to FtsZ proteins. Fluorescence anisotropy experiments were performed using an AVIV model ATF105 spectrofluorometer at 15, 25, or 37° C. In these experiments, bandwidths were set to 4 nm in both the excitation and emission directions, with the excitation and emission wavelengths being set at 488 nm and 510 nm, respectively. BOFP (0.1 μM) was titrated with increasing concentrations (ranging from 0 to 12 μM) of FtsZ in 120 μL of buffer containing 50 mM Tris-HCl (pH 7.6) and 50 mM KCl. After each protein addition, the samples were equilibrated for 3 minutes, whereupon the fluorescence anisotropy was measured.
(§2) [formula] In this equation, r0 is the anisotropy of the protein-free compound, r∞ is the anisotropy of the compound in the presence of an infinite concentration of FtsZ, [C]tot is the total concentration of the compound, and [P]tot is the total concentration of protein with each addition. These analyses yielded the equilibrium dissociation constant (Kd) for each binding reaction.
(§3) The binding free energy (ΔG) at temperature T was derived from the corresponding Kd value determined at T using the following relationship:
(§4) [formula] The binding enthalpy (ΔH) and entropy (ΔS) were derived from linear fits of the ln(1/Kd) vs. 1/T plots shown in FIGS. 3f and 5e using the following relationship:
(§5) A quartz ultra-micro cell (Hellma) with a 2×5 mm aperture and a 15 mm center height was used for all measurements. The pathlengths in the excitation and emissions directions were 1 and 0.2 cm, respectively. All steady-state anisotropy experiments were conducted in at least triplicate, with the reported anisotropies reflecting the average values.

[2] = target: Klebsiella pneumoniae FtsZ (KpFtsZ) (Klebsiella pneumoniae, UniProt A0A0H3GRR0); details: for Kd: 50 mM Tris-HCl (pH 7.6), 50 mM KCl
Sequence of Klebsiella pneumoniae FtsZ (KpFtsZ) (A0A0H3GRR0 entry or part of it): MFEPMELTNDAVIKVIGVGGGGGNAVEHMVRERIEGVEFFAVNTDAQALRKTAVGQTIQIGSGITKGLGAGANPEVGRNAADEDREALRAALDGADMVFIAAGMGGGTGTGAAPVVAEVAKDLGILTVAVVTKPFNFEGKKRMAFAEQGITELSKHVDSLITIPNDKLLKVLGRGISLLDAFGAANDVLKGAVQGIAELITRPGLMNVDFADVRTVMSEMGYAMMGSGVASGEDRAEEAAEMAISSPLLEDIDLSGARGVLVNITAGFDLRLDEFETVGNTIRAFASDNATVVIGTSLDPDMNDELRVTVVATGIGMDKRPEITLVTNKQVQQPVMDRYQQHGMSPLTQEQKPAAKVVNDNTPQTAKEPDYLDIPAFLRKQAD
Method: as §1, §2, §3, §4, §5

[3] = target: T2, Pseudomonas aeruginosa FtsZ (PaFtsZ) (Pseudomonas aeruginosa, UniProt P47204); details: for Kd: 50 mM Tris-HCl (pH 7.6), 50 mM KCl
T2 sequence (P47204 1-394): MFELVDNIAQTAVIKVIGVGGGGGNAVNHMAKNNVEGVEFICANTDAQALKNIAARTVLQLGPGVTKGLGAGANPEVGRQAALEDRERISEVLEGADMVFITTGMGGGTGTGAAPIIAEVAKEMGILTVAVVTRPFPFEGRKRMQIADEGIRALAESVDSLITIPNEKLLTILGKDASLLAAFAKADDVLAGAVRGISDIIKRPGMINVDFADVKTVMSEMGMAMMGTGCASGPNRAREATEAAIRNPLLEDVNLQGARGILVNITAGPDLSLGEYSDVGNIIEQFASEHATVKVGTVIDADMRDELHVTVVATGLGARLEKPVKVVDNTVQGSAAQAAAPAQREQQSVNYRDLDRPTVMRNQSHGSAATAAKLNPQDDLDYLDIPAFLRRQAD
Method: as §1, §2, §3, §4, §5

S. aureus FtsZ (SaFtsZ) = target: T3, S. aureus FtsZ (SaFtsZ) (Staphylococcus aureus, UniProt P0A031)
T3 sequence (P0A031 1-390): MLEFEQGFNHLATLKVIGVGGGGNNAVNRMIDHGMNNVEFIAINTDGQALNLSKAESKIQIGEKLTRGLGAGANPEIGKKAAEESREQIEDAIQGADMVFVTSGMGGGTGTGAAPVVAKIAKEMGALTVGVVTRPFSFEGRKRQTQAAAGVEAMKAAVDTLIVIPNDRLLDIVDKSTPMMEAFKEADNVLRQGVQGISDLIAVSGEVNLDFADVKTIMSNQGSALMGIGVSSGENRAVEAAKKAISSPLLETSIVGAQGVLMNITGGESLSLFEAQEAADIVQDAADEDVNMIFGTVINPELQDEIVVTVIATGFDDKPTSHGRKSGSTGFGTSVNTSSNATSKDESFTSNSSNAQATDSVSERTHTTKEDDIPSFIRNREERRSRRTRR
Method: as §1, §2, §3, §4, §5

[4] = target: T4, Streptococcus agalactiae FtsZ (SagFtsZ) (Streptococcus agalactiae, UniProt Q8E183); details: for Kd: 50 mM Tris-HCl (pH 7.6), 50 mM KCl
T4 sequence (Q8E183 1-426): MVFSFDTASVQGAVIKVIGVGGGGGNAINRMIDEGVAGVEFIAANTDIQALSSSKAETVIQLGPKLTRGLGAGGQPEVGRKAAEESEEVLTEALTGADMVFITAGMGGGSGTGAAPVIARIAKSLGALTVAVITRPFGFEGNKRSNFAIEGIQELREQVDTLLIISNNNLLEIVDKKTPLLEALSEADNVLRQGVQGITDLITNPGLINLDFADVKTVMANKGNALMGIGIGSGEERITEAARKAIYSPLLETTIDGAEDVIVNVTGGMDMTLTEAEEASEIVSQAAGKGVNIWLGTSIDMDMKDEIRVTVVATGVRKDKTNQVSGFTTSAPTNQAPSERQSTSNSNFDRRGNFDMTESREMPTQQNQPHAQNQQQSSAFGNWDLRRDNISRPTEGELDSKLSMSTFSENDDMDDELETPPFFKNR
Method: as §1, §2, §3, §4, §5

[5] = linear fit of ln(1/Kd) vs. 1/T, Eq. 3
[6] = SaFtsZ, linear fit of ln(1/Kd) vs. 1/T, Eq. 3

Question: How did the “ΔS contribution to the observed ΔG of binding” value [1] turn out when `CC1=CC(C)=[N+]2C1=Cc1ccc(CCC(=O)OCC(Oc3ccc(F)c(C(N)=O)c3F)c3nc(-c4ccc(C(F)(F)F)cc4)c(Br)o3)n1[B-]2(F)F` (stereo not shown) [BOFP, 2-(5-bromo-4-(4-(trifluoromethyl)phenyl)-oxazol-2-yl)-2-(3-carbamoyl-2,4-difluorophenoxy)ethyl 3-(5,5-difluoro-7,9-dimethyl-5H-5λ^4,6λ^4-dipyrrolo[1,2-c:2′,1′-f][1,3,2]diazaborinin-3-yl)propanoate] was run?
Answer: > 50%

Question: What about the Kd ([1]; 15° C., read-out: Kd −15° C.) of the same molecule?
Answer: 400 ± 30 nM

Question: What about the Kd ([1]; 25° C., read-out: Kd −25° C.) of the same molecule?
Answer: 550 ± 20 nM

Question: What about the Kd ([1]; 37° C., read-out: Kd −37° C.) of the same molecule?
Answer: 680 ± 40 nM

Question: What about the ΔH [1, 5] of the same molecule?
Answer: -4.2 ± 0.6 kcal/mol

Question: What about the ΔS [1, 5] of the same molecule?
Answer: +14.5 ± 2.1 cal/mol · K

Question: And the “ΔH contribution to the observed ΔG of binding” value (“ΔH contribution” for short) [2]?
Answer: > 50%

Question: What about the Kd ([2]; 15° C., read-out: Kd −15° C.) of the same molecule?
Answer: 420 ± 50 nM

Question: What about the Kd ([2]; 25° C., read-out: Kd −25° C.) of the same molecule?
Answer: 580 ± 40 nM

Question: And the Kd ([2]; 37° C., read-out: Kd −37° C.)?
Answer: 820 ± 40 nM

Question: And the ΔG ([2]; T = 310K (37° C.), Eq. 2)?
Answer: -8.6 ± 0.1 kcal/mol

Question: What about the ΔH [2, 5] of the same molecule?
Answer: -5.4 ± 0.1 kcal/mol

Question: And the ΔS [2, 5]?
Answer: +10.5 ± 0.1 cal/mol · K

Question: And the “ΔH contribution” value [3]?
Answer: > 50%

Question: What about the Kd ([3]; 15° C., read-out: Kd −15° C.) of the same molecule?
Answer: 230 ± 20 nM

Question: What about the Kd ([3]; 25° C., read-out: Kd −25° C.) of the same molecule?
Answer: 360 ± 60 nM

Question: And the Kd ([3]; 37° C., read-out: Kd −37° C.)?
Answer: 580 ± 60 nM

Question: And the ΔG ([3]; T = 310K (37° C.), Eq. 2)?
Answer: -8.8 ± 0.1 kcal/mol

Question: What about the ΔH [3, 5] of the same molecule?
Answer: -7.7 ± 0.2 kcal/mol

Question: What about the ΔS [3, 5] of the same molecule?
Answer: +3.8 + 0.6 cal/mol · K

Question: What about the Kd (S. aureus FtsZ (SaFtsZ)) of the same molecule?
Answer: 880 to 3140 nM

Question: What about the “enthalpic contribution (ΔH) to the observed ΔG of binding” value (S. aureus FtsZ (SaFtsZ); SaFtsZ) of the same molecule?
Answer: 100%

Question: And the Kd (S. aureus FtsZ (SaFtsZ); SaFtsZ, 15° C., 50 mM Tris-HCl (pH 7.6), 50 mM KCl, read-out: Kd −15° C.)?
Answer: 880 ± 80 nM

Question: What about the Kd (S. aureus FtsZ (SaFtsZ); SaFtsZ, 25° C., 50 mM Tris-HCl (pH 7.6), 50 mM KCl, read-out: Kd −25° C.) of the same molecule?
Answer: 1660 ± 120 nM

Question: And the Kd (S. aureus FtsZ (SaFtsZ); SaFtsZ, 37° C., 50 mM Tris-HCl (pH 7.6), 50 mM KCl, read-out: Kd −37° C.)?
Answer: 3140 ± 130 nM

Question: And the ΔG (S. aureus FtsZ (SaFtsZ); SaFtsZ, T = 310K (37° C.), Eq. 2)?
Answer: -7.8 ± 0.1 kcal/mol

Question: And the ΔH (S. aureus FtsZ (SaFtsZ); [6])?
Answer: -10.2 ± 0.3 kcal/mol

Question: What about the ΔS (S. aureus FtsZ (SaFtsZ); [6]) of the same molecule?
Answer: −7.8 ± 1.0 cal/mol · K

Question: And the “ΔH contribution” value [4]?
Answer: > 50%

Question: And the Kd ([4]; 15° C., read-out: Kd −15° C.)?
Answer: 620 ± 50 nM

Question: And the Kd ([4]; 25° C., read-out: Kd −25° C.)?
Answer: 1020 ± 90 nM

Question: What about the Kd ([4]; 37° C., read-out: Kd −37° C.) of the same molecule?
Answer: 1310 ± 40 nM

Question: And the ΔH [4, 5]?
Answer: -6.6 ± 0.6 kcal/mol

Question: And the ΔS [4, 5]?
Answer: +5.4 ± 2.0 cal/mol · K
